Test results taken from patent US9950048B2, “Immunogenic epitopes for immunotherapy” (immatics biotechnologies GmbH, priority 2007, dated 2018).
Ends that are not written are not given here.

What was measured:
[1] = tested on: monocyte-depleted PBMCs of one healthy donor; experiment: In vitro priming with peptide-pulsed autologous DCs, IFNγ ELISPOT read-out; type: cell-based, human
Method: FIG. 6 depicts the in vitro immunogenicity of TGFBI-004 as detected by IFNγ ELISPOT after five stimulation cycles.
Cells were primed and restimulated repeatedly with TGFBI-004 and then incubated with relevant TGFBI-004 (Well 1, 2, 3 and 4) and irrelevant (Neg. control) peptide, respectively. The analysis after IFNγ ELISPOT was performed on an ELISPOT Reader (CTL, Cleveland, USA). PHA-Ionomycin served as positive control. Numbers indicate the count of positive spots.
(§1) Priming and expansion of specific human CD4+ and CD8+ cells were assayed in vitro by priming of monocyte-depleted PBMCs with autologous DCs and restimulation with autologous PBMCs. […] As a read-out system, IFNγ production upon short term restimulation was assessed by ELISPOT and flow cytometry. T cells were analysed after […] stimulations by ELISPOT and intracellular IFNγ staining plus CD4-FITC and CD8-PerCP to determine the percentage of IFNγ-producing cells in specific T-cell subpopulations. In this experiment, cells stimulated with TGFBI-004 peptide from different wells were pooled, incubated with irrelevant peptide for the read-out and performed as negative controls. […]
(§2) To generate CD4+ T cells, 3 Million PBMCs/PBLs were stimulated with 2×10^5 autologuous DCs. […] After being washed with DC medium, cell number was determined. […]

[2] = tested on: monocyte-depleted PBMCs of one healthy donor; experiment: In vitro priming with peptide-pulsed autologous DCs, intracellular IFNγ staining (ICS) read-out; type: cell-based, human
Method: FIGS. 7a and 7b depict the in vitro immunogenicity of TGFBI-004 as detected by ICS after five stimulation cycles.
Cells were primed with TGFBI-004-loaded autologous DCs and restimulated repeatedly with autologous PBMCs plus TGFBI-004. For the read-out cells were incubated with relevant TGFBI-004 (Well 1, 2, 3 and 4) and irrelevant (Neg. Control) peptide, respectively. Additionally to the intracellular IFNγ staining, cells were also stained with CD4-FITC and OCD8-PerCP antibodies. The analysis was performed on a four-color FACSCalibur cytometer (BD Biosciences, Germany).
as §1, §2

[3] = Particle size/shape measurement and analytical HPLC of reconstituted IMA910 suspension; type: physicochemical; settings: analytical HPLC of suspension
Method: Particle size distribution and particle shape measurement of the particles obtained after reconstitution have been performed by capturing direct images of each individual particle in the range of 0.25 to 100 μm followed by image analysis.
Furthermore, analytical HPLC was performed for a closer characterization of the obtained suspension.
IMA910 is dissolved in 700 μL sodium hydrogen carbonate (4.2%).

[4] = tested on: CD8+ T cells of healthy HLA-A*02+ donors; experiment: In vitro priming of CD8+ T cells with pMHC/anti-CD28 coated beads (high density), tetramer analysis; type: cell-based, human; settings: for Immunogenicity detected: at least one well with ≥1% specific tetramer+ among CD8+ T-cells and ≥10× median of negative controls; for Positive donors/donors tested / Positive donors/donors tested (%) / Positive wells/wells tested / Positive wells/wells tested (%): high density beads
Method: To perform in vitro stimulations by artificial antigen presenting cells (aAPC) loaded with peptide-MHC complex (pMHC) and anti-CD28 antibody, first PBMCs (peripheral blood mononuclear cells) were isolated from fresh HLA-A*02+ buffy coats by using standard density gradient separation medium (PAA, Cölbe, Germany). Buffy coats were either obtained from the Blood Bank Tübingen or from the Katharinenhospital Stuttgart. Isolated PBMCs were incubated overnight in T-cell medium (TCM) for human in vitro priming consisting of RPMI-Glutamax (Invitrogen, Karlsruhe, Germany) supplemented with 10% heat inactivated human AB serum (PAA, Cölbe, Germany), 100 U/ml Penicillin/100 μg/ml Streptomycin (Cambrex, Verviers, Belgium), 1 mM sodium pyruvate (CC Pro, Neustadt, Germany) and 20 μg/ml Gentamycin (Cambrex). CD8+ lymphocytes were isolated using the CD8+ MACS positive selection kit (Miltenyi, Bergisch Gladbach, Germany) according to the manufacturer's instructions. Obtained CD8+ T-cells were incubated until use in TCM supplemented with 2.5 ng/ml IL-7 (PromoCell, Heidelberg, Germany) and 10 U/ml IL-2 (Chiron, Munich, Gemany). Generation of pMHC/anti-CD28 coated beads, T-cell stimulations and readout was performed as described before (Walter, S, et al., 2003, J. Immunol., 171, 4974-4978) with minor modifications. Briefly, biotinylated recombinant HLA-A*0201 molecules lacking the transmembrane domain and being biotinylated at the carboxy terminus of the heavy chain were produced following a method described by (Altman, J D, et al., 1996, Science, 274, 94-96). The purified costimulatory mouse IgG2a anti human CD28 Ab 9.3 (Jung, G, Ledbetter, J A, and Muller-Eberhard, H J; 1987, Induction of cytotoxicity in resting human T lymphocytes bound to tumor cells by antibody heteroconjugates, Proc Natl Acad Sci USA, 84, 4611-4615) was chemically biotinylated using Sulfo-N-hydroxysuccinimidobiotin as recommended by the manufacturer (Perbio, Bonn, Germany).
800,000 beads/200 μl were coated in 96-well plates in the presence of 600 ng biotin anti-CD28 plus 200 ng relevant biotin-pMHC (high density beads) or 2 ng relevant plus 200 ng irrelevant (pMHC library) MHC (low density beads). Stimulations were initiated in 96-well plates by conincubating 1×10^6 CD8+ T cells with 2×10^5 washed coated beads in 200 μl TCM supplemented with 5 ng/ml IL-12 (PromoCell) for 3-4 days at 37° C. Half of the medium was then exchanged by fresh TCM supplemented with 80 U/ml IL-2 and incubation was continued for 3-4 days at 37° C. This stimulation cycle was performed for a total of three times. Finally, tetrameric analyses were performed with fluorescent MHC tetramers (produced as described by (Altman, J D, et al., 1996, Science, 274, 94-96)) plus antibody CD8-FITC clone SK1 (BD, Heidelberg, Germany) on a four-color FACSCalibur (BD). Peptide specific cells were calculated as percentage of total CD8+ T cells. Evaluation of tetrameric analysis was performed using the software FCS Express (De Novo Software). In vitro priming of specific tetramer+CD8+ lymphocytes was detected by appropriate gating and by comparison to negative control stimulations.
Peptides of the present invention were tested together with peptides of known in vivo immunogenicity for comparison. The CEA-005 peptide that was optimised for in vitro T-cell induction (Fong, L, et al., 2001, J. Immunol., 166, 4254-4259) served as control.
Results of in vitro immunogenicity experiments conducted by immatics are summarised here. Results shown have been obtained by stimulation of CD8+ cells with high density beads. As different human serum lots may highly affect the immunogenicity results, only assays in which one and the same serum lot was used, were evaluated together.

Substance	induction of CD4+ and CD8+ T cell responses ([1]; one donor tested, autologous system)	T-cell lines with T-cell responses detected via ELISPOT ([1]; one healthy donor, IFNγ ELISPOT)	T-cell lines with specific IFNγ producing CD4+ and/or CD8+ cells via ICS [2]	amount of peptide found in the particles [3]	Immunogenicity detected [4]	Positive donors/donors tested [4]	Positive donors/donors tested (%) [4]	Positive wells/wells tested [4]	Positive wells/wells tested (%) [4]
TPPIDAHTRNLLRNH (listed as Homo sapiens) [TGFBI-004]	able to elicit CD4+ and CD8+ T cell responses	2 out of 4	3 out of 4	–	–	–	–	–	–
KIFDEILVNA [TOP-001]	–	–	–	low amounts	yes	2/5	(40%)	7/72	(10%)
ALSNLEVTL [Peptide C20-001]	–	–	–	–	yes	1/5	(20%)	1/60	(2%)
KLMDLDVEQL [PCN-001]	–	–	–	–	yes	3/4	(75%)	4/42	(10%)
KLTDIQIEL (listed as Homo sapiens) [JAK-001]	–	–	–	–	yes	–	–	–	–
SLWAGVVVL (listed as Homo sapiens) [CHI-001]	–	–	–	–	yes	–	–	–	–
ALTTLMHQL (listed as Homo sapiens) [PTP-001]	–	–	–	–	yes	–	–	–	–
CCN-001: 9 amino acid peptide in vaccine IMA910, supplied as chloride salt (LLGATCMFV; also: chloride salt) [reference compound]	–	–	–	low amounts	yes	5/5	(100%)	42/54	(78%)
